Test results from PubChem BioAssay (NCI).
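Method: 48-hour compound exposure of cells in 96-well plates, five concentrations, linear interpolation of endpoints. Abbreviation: GI50, concentration required for 50% inhibition of growth. At the TGI there is no net growth.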

Tests used:
Assay in all cases: NCI tumour cell line growth inhibition, 48 h
786-0 renal = test system: 786-0 renal
A498 renal = test system: A498 renal
A549 NSCLC = test system: A549 NSCLC
ACHN renal = test system: ACHN renal
CAKI-1 renal = test system: CAKI-1 renal
CCRF-CEM leukemia = test system: CCRF-CEM leukemia
COLO 205 colon = test system: COLO 205 colon
DLD-1 colon = test system: DLD-1 colon
DMS 114 small cell lung = test system: DMS 114 small cell lung
DMS 273 small cell lung = test system: DMS 273 small cell lung
EKVX NSCLC = test system: EKVX NSCLC
HCC-2998 colon = test system: HCC-2998 colon
HCT-116 colon = test system: HCT-116 colon
HCT-15 colon = test system: HCT-15 colon
HL-60(TB) leukemia = test system: HL-60(TB) leukemia
HOP-18 NSCLC = test system: HOP-18 NSCLC
HOP-62 NSCLC = test system: HOP-62 NSCLC
HT29 colon = test system: HT29 colon
IGROV1 ovarian = test system: IGROV1 ovarian
K-562 leukemia = test system: K-562 leukemia
KM12 colon = test system: KM12 colon
KM20L2 colon = test system: KM20L2 colon
LOX IMVI melanoma = test system: LOX IMVI melanoma
LXFL 529 NSCLC = test system: LXFL 529 NSCLC
M14 melanoma = test system: M14 melanoma
M19-MEL melanoma = test system: M19-MEL melanoma
MALME-3M melanoma = test system: MALME-3M melanoma
MOLT-4 leukemia = test system: MOLT-4 leukemia
NCI-H226 lung = test system: NCI-H226 lung
NCI-H23 lung = test system: NCI-H23 lung
NCI-H460 lung = test system: NCI-H460 lung
NCI-H522 lung = test system: NCI-H522 lung
OVCAR-3 ovarian = test system: OVCAR-3 ovarian
OVCAR-4 ovarian = test system: OVCAR-4 ovarian
OVCAR-5 ovarian = test system: OVCAR-5 ovarian
OVCAR-8 ovarian = test system: OVCAR-8 ovarian
RPMI-8226 leukemia = test system: RPMI-8226 leukemia
RXF-631 renal = test system: RXF-631 renal
SF-268 CNS = test system: SF-268 CNS
SF-295 CNS = test system: SF-295 CNS
SF-539 CNS = test system: SF-539 CNS
SK-MEL-2 melanoma = test system: SK-MEL-2 melanoma
SK-MEL-28 melanoma = test system: SK-MEL-28 melanoma
SK-MEL-5 melanoma = test system: SK-MEL-5 melanoma
SK-OV-3 ovarian = test system: SK-OV-3 ovarian
SN12C renal = test system: SN12C renal
SNB-19 CNS = test system: SNB-19 CNS
SNB-75 CNS = test system: SNB-75 CNS
SNB-78 CNS = test system: SNB-78 CNS
SW-620 colon = test system: SW-620 colon
TK-10 renal = test system: TK-10 renal
UACC-257 melanoma = test system: UACC-257 melanoma
UACC-62 melanoma = test system: UACC-62 melanoma
UO-31 renal = test system: UO-31 renal
XF 498 CNS = test system: XF 498 CNS
HOP-92 NSCLC = test system: HOP-92 NSCLC
RXF 393 renal = test system: RXF 393 renal
U251 CNS = test system: U251 CNS

Structure (SMILES): CCO.CCO.Oc1ccc(Nc2ncns2)cc1.Oc1ccc(Nc2ncns2)cc1.[Ti]
- GI50 (786-0 renal): 49.6 µM
- TGI (786-0 renal): > 100 µM
- GI50 (A498 renal): 28.6 µM
- TGI (A498 renal): 74.9 µM
- GI50 (A549 NSCLC): 43.6 µM
- TGI (A549 NSCLC): > 100 µM
- GI50 (ACHN renal): 33.2 µM
- TGI (ACHN renal): > 100 µM
- GI50 (CAKI-1 renal): 47.5 µM
- TGI (CAKI-1 renal): > 100 µM
- GI50 (CCRF-CEM leukemia): 27.7 µM
- TGI (CCRF-CEM leukemia): > 100 µM
- GI50 (COLO 205 colon): 21.5 µM
- TGI (COLO 205 colon): 47.4 µM
- GI50 (DLD-1 colon): 36.5 µM
- TGI (DLD-1 colon): > 100 µM
- GI50 (DMS 114 small cell lung): 21.6 µM
- TGI (DMS 114 small cell lung): 67.5 µM
- GI50 (DMS 273 small cell lung): 25.3 µM
- TGI (DMS 273 small cell lung): 80.7 µM
- GI50 (EKVX NSCLC): 34.6 µM
- TGI (EKVX NSCLC): 87.9 µM
- GI50 (HCC-2998 colon): 53.1 µM
- TGI (HCC-2998 colon): > 100 µM
- GI50 (HCT-116 colon): 30.2 µM
- TGI (HCT-116 colon): > 100 µM
- GI50 (HCT-15 colon): 48.1 µM
- TGI (HCT-15 colon): > 100 µM
- GI50 (HL-60(TB) leukemia): 24.7 µM
- TGI (HL-60(TB) leukemia): 74.1 µM
- GI50 (HOP-18 NSCLC): > 100 µM
- TGI (HOP-18 NSCLC): > 100 µM
- GI50 (HOP-62 NSCLC): 71.5 µM
- TGI (HOP-62 NSCLC): > 100 µM
- GI50 (HT29 colon): 31.5 µM
- TGI (HT29 colon): > 100 µM
- GI50 (IGROV1 ovarian): 93 µM
- TGI (IGROV1 ovarian): > 100 µM
- GI50 (K-562 leukemia): 29 µM
- TGI (K-562 leukemia): > 100 µM
- GI50 (KM12 colon): 47.5 µM
- TGI (KM12 colon): > 100 µM
- GI50 (KM20L2 colon): > 100 µM
- TGI (KM20L2 colon): > 100 µM
- GI50 (LOX IMVI melanoma): 30.1 µM
- TGI (LOX IMVI melanoma): > 100 µM
- GI50 (LXFL 529 NSCLC): 24.7 µM
- TGI (LXFL 529 NSCLC): > 100 µM
- GI50 (M14 melanoma): 45.4 µM
- TGI (M14 melanoma): > 100 µM
- GI50 (M19-MEL melanoma): 44.5 µM
- TGI (M19-MEL melanoma): > 100 µM
- GI50 (MALME-3M melanoma): 38.3 µM
- TGI (MALME-3M melanoma): > 100 µM
- GI50 (MOLT-4 leukemia): 27.5 µM
- TGI (MOLT-4 leukemia): > 100 µM
- GI50 (NCI-H226 lung): > 100 µM
- TGI (NCI-H226 lung): > 100 µM
- GI50 (NCI-H23 lung): 27.6 µM
- TGI (NCI-H23 lung): 91.8 µM
- GI50 (NCI-H460 lung): 26.7 µM
- TGI (NCI-H460 lung): 87.7 µM
- GI50 (NCI-H522 lung): 13.6 µM
- TGI (NCI-H522 lung): 28.3 µM
- GI50 (OVCAR-3 ovarian): 55.8 µM
- TGI (OVCAR-3 ovarian): > 100 µM
- GI50 (OVCAR-4 ovarian): 38.8 µM
- TGI (OVCAR-4 ovarian): > 100 µM
- GI50 (OVCAR-5 ovarian): > 100 µM
- TGI (OVCAR-5 ovarian): > 100 µM
- GI50 (OVCAR-8 ovarian): 39.7 µM
- TGI (OVCAR-8 ovarian): > 100 µM
- GI50 (RPMI-8226 leukemia): 31.3 µM
- TGI (RPMI-8226 leukemia): > 100 µM
- GI50 (RXF-631 renal): 33 µM
- TGI (RXF-631 renal): > 100 µM
- GI50 (SF-268 CNS): 36.2 µM
- TGI (SF-268 CNS): > 100 µM
- GI50 (SF-295 CNS): 69.9 µM
- TGI (SF-295 CNS): > 100 µM
- GI50 (SF-539 CNS): 34.5 µM
- TGI (SF-539 CNS): > 100 µM
- GI50 (SK-MEL-2 melanoma): 27.6 µM
- TGI (SK-MEL-2 melanoma): 70.7 µM
- GI50 (SK-MEL-28 melanoma): 53 µM
- TGI (SK-MEL-28 melanoma): > 100 µM
- GI50 (SK-MEL-5 melanoma): 23.4 µM
- TGI (SK-MEL-5 melanoma): 72.3 µM
- GI50 (SK-OV-3 ovarian): > 100 µM
- TGI (SK-OV-3 ovarian): > 100 µM
- GI50 (SN12C renal): 67 µM
- TGI (SN12C renal): > 100 µM
- GI50 (SNB-19 CNS): 64.6 µM
- TGI (SNB-19 CNS): > 100 µM
- GI50 (SNB-75 CNS): 15.8 µM
- TGI (SNB-75 CNS): 69.1 µM
- GI50 (SNB-78 CNS): 41.6 µM
- TGI (SNB-78 CNS): > 100 µM
- GI50 (SW-620 colon): 39.5 µM
- TGI (SW-620 colon): > 100 µM
- GI50 (TK-10 renal): 50.8 µM
- TGI (TK-10 renal): > 100 µM
- GI50 (UACC-257 melanoma): 30.2 µM
- TGI (UACC-257 melanoma): > 100 µM
- GI50 (UACC-62 melanoma): 45.9 µM
- TGI (UACC-62 melanoma): > 100 µM
- GI50 (UO-31 renal): 41.6 µM
- TGI (UO-31 renal): > 100 µM
- GI50 (XF 498 CNS): 44.9 µM
- TGI (XF 498 CNS): > 100 µM

Structure (SMILES): COC(=O)C1CC(C(=O)OC)c2nc3cc([N+](=O)[O-])ccc3nc21 (stereo not drawn)
- TGI (786-0 renal): > 100 µM
- TGI (A498 renal): > 100 µM
- TGI (A549 NSCLC): > 100 µM
- TGI (ACHN renal): > 100 µM
- TGI (CAKI-1 renal): > 100 µM
- TGI (CCRF-CEM leukemia): > 100 µM
- TGI (COLO 205 colon): > 100 µM
- TGI (DLD-1 colon): > 100 µM
- TGI (DMS 114 small cell lung): > 100 µM
- TGI (DMS 273 small cell lung): > 100 µM
- TGI (EKVX NSCLC): > 100 µM
- TGI (HCC-2998 colon): > 59.1 µM
- TGI (HCT-116 colon): > 100 µM
- TGI (HCT-15 colon): > 100 µM
- TGI (HL-60(TB) leukemia): > 86.8 µM
- TGI (HOP-18 NSCLC): > 100 µM
- TGI (HOP-62 NSCLC): > 100 µM
- TGI (HOP-92 NSCLC): > 100 µM
- TGI (HT29 colon): > 100 µM
- TGI (IGROV1 ovarian): > 100 µM
- TGI (K-562 leukemia): > 100 µM
- TGI (KM12 colon): > 100 µM
- TGI (KM20L2 colon): > 100 µM
- TGI (LOX IMVI melanoma): > 31.6 µM
- TGI (LXFL 529 NSCLC): > 100 µM
- TGI (M14 melanoma): > 100 µM
- TGI (M19-MEL melanoma): > 100 µM
- TGI (MALME-3M melanoma): > 100 µM
- TGI (MOLT-4 leukemia): > 100 µM
- TGI (NCI-H226 lung): > 100 µM
- TGI (NCI-H23 lung): > 100 µM
- TGI (NCI-H460 lung): > 100 µM
- TGI (NCI-H522 lung): > 64.7 µM
- TGI (OVCAR-3 ovarian): > 100 µM
- TGI (OVCAR-4 ovarian): > 100 µM
- TGI (OVCAR-5 ovarian): > 100 µM
- TGI (OVCAR-8 ovarian): > 100 µM
- TGI (RPMI-8226 leukemia): > 100 µM
- TGI (RXF 393 renal): > 100 µM
- TGI (RXF-631 renal): > 100 µM
- TGI (SF-268 CNS): > 100 µM
- TGI (SF-295 CNS): > 100 µM
- TGI (SF-539 CNS): > 100 µM
- TGI (SK-MEL-2 melanoma): > 100 µM
- TGI (SK-MEL-28 melanoma): > 100 µM
- TGI (SK-MEL-5 melanoma): > 100 µM
- TGI (SK-OV-3 ovarian): > 100 µM
- TGI (SN12C renal): > 100 µM
- TGI (SNB-19 CNS): > 100 µM
- TGI (SNB-75 CNS): > 100 µM
- TGI (SNB-78 CNS): > 100 µM
- TGI (SW-620 colon): > 100 µM
- TGI (TK-10 renal): > 100 µM
- TGI (U251 CNS): > 100 µM
- TGI (UACC-257 melanoma): > 100 µM
- TGI (UACC-62 melanoma): > 100 µM
- TGI (UO-31 renal): 98.9 µM
- TGI (XF 498 CNS): > 100 µM
